Experimental data from ChEMBL document CHEMBL1201862, “PubChem BioAssay data set” (2004).
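Where inhibition never reached the appropriate level, the endpoint shown equals the highest concentration tested. Otherwise, values were interpolated linearly from a five-concentration, 48-hour dose response in 96-well plates. The concentration for 50% growth inhibition is given as GI50.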 Active and inactive are the calls of the source. No stated cut-off is given here; in the data, active = GI50 up to about 1.1 µM and inactive = higher.

Columns and labels:
Assay in all cases: inhibition of tumour cell growth, NCI panel, 48 h
[1] = test system: LOX IMVI
[2] = test system: KM12
[3] = test system: A498
[4] = test system: OVCAR-3
[5] = test system: NCI-H23
[6] = test system: UACC-257
[7] = test system: M14
[8] = test system: HOP-92
[9] = test system: Malme-3M
[10] = test system: HCT-15
[11] = test system: SNB-19
[12] = test system: HCT-116
[13] = test system: UO-31
[14] = test system: CAKI-1
[15] = test system: UACC-62

Row | SMILES | GI50 [1] | GI50 [2] | GI50 [3] | GI50 [4] | GI50 [5] | GI50 [6] | GI50 [7] | GI50 [8] | GI50 [9] | GI50 [10] | GI50 [11] | GI50 [12] | GI50 [13] | GI50 [14] | GI50 [15]
1 | CCOC1C(Br)Cn2c(=O)c3cc4ccccc4cc3c(=O)n2C1C (stereo not drawn) | 73.5 µM (inactive) | > 100 µM (inactive) | 12.2 µM (inactive) | > 100 µM (inactive) | > 100 µM (inactive) | 60.4 µM (inactive) | 42.5 µM (inactive) | 97.7 µM (inactive) | > 100 µM (inactive) | 43.6 µM | > 100 µM (inactive) | 58.9 µM (inactive) | 78.5 µM (inactive) | 55.1 µM (inactive) | 
2 | O=C(NCCCCCCCCCCCCNC(=O)c1cnc2ccccc2n1)c1cnc2ccccc2n1 | 39.8 µM (inactive) | > 100 µM (inactive) | 24.9 µM (inactive) | 34.7 µM (inactive) |  | 47.8 µM (inactive) | > 100 µM (inactive) |  | > 100 µM (inactive) | > 100 µM | 14.8 µM (inactive) | 41.5 µM (inactive) | 23.9 µM (inactive) | > 100 µM (inactive) | > 100 µM (inactive)
3 | O=C1CCCCC1C1(O)C(=O)Nc2cc(F)ccc21 (stereo not drawn) | > 100 µM (inactive) | > 100 µM (inactive) | > 100 µM (inactive) |  | > 100 µM (inactive) | > 100 µM (inactive) | > 100 µM (inactive) | > 100 µM (inactive) | > 100 µM (inactive) | > 100 µM | > 100 µM (inactive) | > 100 µM (inactive) | > 100 µM (inactive) | > 100 µM (inactive) | > 100 µM (inactive)
4 | O=C1CCSC2=C1SCc1sccc12 | > 100 µM (inactive) | > 100 µM (inactive) |  | > 100 µM (inactive) | > 100 µM (inactive) | > 100 µM (inactive) | > 100 µM (inactive) | > 100 µM (inactive) | > 100 µM (inactive) | > 100 µM | > 100 µM (inactive) |  | > 100 µM (inactive) | > 100 µM (inactive) | > 100 µM (inactive)
5 | COc1cccc(C=O)c1[O-].COc1cccc(C=O)c1[O-].[Zn+2] | 76.9 µM (inactive) | > 100 µM (inactive) | > 100 µM (inactive) | 32.8 µM (inactive) | 79.3 µM (inactive) | 33.9 µM (inactive) | 36.3 µM (inactive) | 21.9 µM (inactive) | 69 µM (inactive) | 38 µM | > 100 µM (inactive) | 44.3 µM (inactive) | 28.2 µM (inactive) |  | 46.2 µM (inactive)
6 | CCOC(=O)[C@H]1CSC[C@@H](C(=O)OC)N1 | > 100 µM (inactive) | > 100 µM (inactive) | > 100 µM (inactive) | > 100 µM (inactive) | > 100 µM (inactive) | > 100 µM (inactive) | > 100 µM (inactive) |  | > 100 µM (inactive) | > 100 µM | > 100 µM (inactive) | > 100 µM (inactive) | > 100 µM (inactive) | > 100 µM (inactive) | > 100 µM (inactive)
7 | CCOC(=O)/C=C/c1ccccn1 | > 100 µM (inactive) | > 100 µM (inactive) | > 100 µM (inactive) |  | > 100 µM (inactive) | > 100 µM (inactive) | > 100 µM (inactive) | > 100 µM (inactive) | > 100 µM (inactive) | > 100 µM |  | > 100 µM (inactive) | > 100 µM (inactive) | > 100 µM (inactive) | > 100 µM (inactive)
8 | COc1ccc(C(=O)C(c2ccc(OC)cc2)C2(O)C(=O)Nc3ccc([N+](=O)[O-])cc32)cc1 (stereo not drawn) |  | > 100 µM (inactive) | 17.7 µM (inactive) | > 100 µM (inactive) | > 100 µM (inactive) | > 100 µM (inactive) | > 100 µM (inactive) | 32.9 µM (inactive) | > 100 µM (inactive) | > 100 µM | > 100 µM (inactive) | > 100 µM (inactive) | > 100 µM (inactive) | > 100 µM (inactive) | > 100 µM (inactive)
9 | O=S1(=O)c2ccccc2NC(c2ccc3ccccc3c2)CC1c1ccccc1F (stereo not drawn) | > 100 µM (inactive) | > 100 µM (inactive) | > 100 µM (inactive) | > 100 µM (inactive) | > 100 µM (inactive) | > 100 µM (inactive) | > 100 µM (inactive) |  | > 100 µM (inactive) | > 100 µM | > 100 µM (inactive) |  | > 100 µM (inactive) | > 100 µM (inactive) | > 100 µM (inactive)
10 | CCCC(=O)CC(C)C(=O)C(=O)NC12CC3CC(CC(C3)C1)C2 (stereo not drawn) | > 100 µM (inactive) | > 100 µM (inactive) |  | > 100 µM (inactive) | > 100 µM (inactive) | > 100 µM (inactive) | > 100 µM (inactive) | 22.3 µM (inactive) | > 100 µM (inactive) | > 100 µM | > 100 µM (inactive) |  | > 100 µM (inactive) | > 100 µM (inactive) | 
11 | O=c1cc(-c2ccccc2)[nH]c2c(F)ccc(F)c12 | 49.3 µM (inactive) | 18.5 µM (inactive) |  |  | > 100 µM (inactive) | > 100 µM (inactive) | 35.4 µM (inactive) | > 100 µM (inactive) | 31.7 µM (inactive) | 26.7 µM |  | 40.6 µM (inactive) | 88.3 µM (inactive) | 56.6 µM (inactive) | 30.7 µM (inactive)
12 | COc1ccc(NC(=O)CC(=O)N2N=C(N(CCC#N)c3cccc(C)c3)CC2c2ccccc2)cc1 (stereo not drawn) |  | > 100 µM (inactive) |  | > 100 µM (inactive) | > 100 µM (inactive) | > 100 µM (inactive) | > 100 µM (inactive) | > 100 µM (inactive) | > 100 µM (inactive) | > 100 µM | > 100 µM (inactive) | > 100 µM (inactive) | > 100 µM (inactive) | > 100 µM (inactive) | > 100 µM (inactive)
13 | Clc1ccc(C2=NOC(C3CCCCC3)C2)cc1 (stereo not drawn) |  | > 100 µM (inactive) | > 100 µM (inactive) | > 100 µM (inactive) | > 100 µM (inactive) | > 100 µM (inactive) | > 100 µM (inactive) | > 100 µM (inactive) | > 100 µM (inactive) | > 100 µM |  | > 100 µM (inactive) | > 100 µM (inactive) |  | > 100 µM (inactive)
14 | COc1ccccc1C1c2cc3c(cc2OC(O)(CO)C1C(=O)O)OCO3.COc1ccccc1C1c2cc3c(cc2OC2(O)COC(=O)C12)OCO3 (stereo not drawn) | > 100 µM (inactive) | > 100 µM (inactive) | > 100 µM (inactive) | > 100 µM (inactive) | > 100 µM (inactive) | > 100 µM (inactive) | > 100 µM (inactive) | > 100 µM (inactive) | > 100 µM (inactive) | > 100 µM |  | > 100 µM (inactive) | > 100 µM (inactive) |  | > 100 µM (inactive)
15 | N#CC1C[C@@H]2CC3(CCC2CN1C(=O)c1ccccc1)OCCO3 (stereo partly drawn) | > 100 µM (inactive) | > 100 µM (inactive) | > 100 µM (inactive) | > 100 µM (inactive) | > 100 µM (inactive) | > 100 µM (inactive) | > 100 µM (inactive) | > 100 µM (inactive) | > 100 µM (inactive) | > 100 µM | > 100 µM (inactive) | > 100 µM (inactive) | > 100 µM (inactive) |  | > 100 µM (inactive)
16 | NC1=NNC(=O)c2nnc3c(C(=O)O)cnn3c2S1 |  | > 100 µM (inactive) |  | > 100 µM (inactive) | > 100 µM (inactive) |  | > 100 µM (inactive) | > 100 µM (inactive) | > 100 µM (inactive) |  | > 100 µM (inactive) | > 100 µM (inactive) | > 100 µM (inactive) | > 100 µM (inactive) | > 100 µM (inactive)
17 | O=C1CCCc2c(O)ccc(O)c21 | > 100 µM (inactive) | > 100 µM (inactive) | > 100 µM (inactive) | > 100 µM (inactive) | > 100 µM (inactive) | > 100 µM (inactive) | > 100 µM (inactive) |  | > 100 µM (inactive) | > 100 µM | > 100 µM (inactive) | > 100 µM (inactive) | > 100 µM (inactive) |  | > 100 µM (inactive)
18 | CCOC(=O)C(C[Si](C)(C)C)P(=O)(OCC)OCC (stereo not drawn) | > 100 µM (inactive) | > 100 µM (inactive) |  | > 100 µM (inactive) | > 100 µM (inactive) | > 100 µM (inactive) | > 100 µM (inactive) | > 100 µM (inactive) | > 100 µM (inactive) | > 100 µM |  | > 100 µM (inactive) | > 100 µM (inactive) | > 100 µM (inactive) | > 100 µM (inactive)
19 | O=C1NC(O)n2c(=O)[nH]c(=O)n21 (stereo not drawn) | > 100 µM (inactive) | > 100 µM (inactive) |  | > 100 µM (inactive) | > 100 µM (inactive) | > 100 µM (inactive) | > 100 µM (inactive) | > 100 µM (inactive) |  | > 100 µM | > 100 µM (inactive) | > 100 µM (inactive) | > 100 µM (inactive) | > 100 µM (inactive) | > 100 µM (inactive)
20 | CCOc1cc2c(cnc3c4cc(OC)c(OC)cc4ccc23)cc1OC |  | > 100 µM (inactive) | > 100 µM (inactive) | > 100 µM (inactive) | > 100 µM (inactive) | > 100 µM (inactive) | > 100 µM (inactive) |  | > 100 µM (inactive) | > 100 µM | > 100 µM (inactive) | > 100 µM (inactive) | > 100 µM (inactive) | > 100 µM (inactive) | > 100 µM (inactive)
21 | CC(=O)Nc1ccc(/C=C2\N=C(c3ccccc3)OC2=O)cc1 | 80.2 µM (inactive) | 68.7 µM (inactive) |  |  | > 100 µM (inactive) | > 100 µM (inactive) | > 100 µM (inactive) | 62.5 µM (inactive) | 6.1 µM (inactive) | 55.7 µM | > 100 µM (inactive) | 79.4 µM (inactive) | > 100 µM (inactive) |  | 27.2 µM (inactive)
